# Reference: publication PMC9995905, “Characteristics of antimicrobial peptide OaBac5mini and its bactericidal mechanism against Escherichia coli” (Frontiers in Veterinary Science, 2023)
# Columns and labels:
# E. coli ATCC 25922 = test: microbe, parasite or virus in culture; details: for MIC: Escherichia coli, ATCC25922, read-out: MIC against E. coli ATCC 25922
# Protocol: (§1) MICs of OaBac5mini, amoxicillin, kanamycin, florfenicol and tetracycline were determined using the two-fold broth microdilution method according to the Clinical and Laboratory Standards Institute (CLSI) guidance ([21]). MIC values of the tested antibacterial agents were determined on three independent occasions. Escherichia coli ATCC 25922 was used as the quality control in all the susceptibility tests.
# S. aureus ATCC 25923 = test: microbe, parasite or virus in culture; details: for MIC: Staphylococcus aureus, ATCC25923, read-out: MIC against S. aureus ATCC 25923
# Protocol: as §1
# E. coli ATCC 25922 ΔsbmA = details: two-fold broth microdilution, CLSI; three independent occasions; sbmA deletion mutant
# Protocol: The method described by Datsenko and Wanner was used for chromosomal gene deletion ([20]). […] The PCR fragment (1,567 bp) was purified, digested with DpnI, repurified and transferred into E. coli ATCC 25922 by electroporation, in which the Red recombinase expression plasmid pKD46 was previously transformed and induced by L-arabinose. Transformants were selected on Luria-Bertani (LB) agar containing 50 μg/ml of kanamycin at 37°C. The inserted sequence was amplified from the kanamycin-resistant strains by using the primers SBMF: 5′-[…]-3′ and SBMR: 5′-[…]-3′ which is located outside of inactivated gene. The length of the PCR product of sbmA using the primers set SBMF and SBMR in E. coli ATCC 25922 is 1,404 bp. When sbmA is successfully inactivated, the PCR product (2,198 bp) was amplified and sequenced for the verification of the gene deletion.
# as §1
# E. coli 17 = test: microbe, parasite or virus in culture; details: for MIC: Escherichia coli, 17, read-out: MIC against E. coli 17
# Description: (§2) The strains of E. coli ATCC 25922 and S. aureus ATCC 25923 were purchased from the American Type Culture Collection (ATCC, Manassas, VA, United States). The strains of E. coli W13, E. coli IF4, E. coli 2, and E. coli 17 were individually isolated from the livers of diseased chickens infected by E. coli. The strains of S. aureus B5, S. aureus B9, S. aureus B54, and S. aureus B63 were individually isolated from the milk of cows with mastitis. These clinical isolates were all identified by the VITEK-32 system (bioMérieux, France) and PCR amplification sequencing.
# as §1
# E. coli 2 = test: microbe, parasite or virus in culture; details: for MIC: Escherichia coli, 2, read-out: MIC against E. coli 2
# Description: as §2, §1
# E. coli IF4 = test: microbe, parasite or virus in culture; details: for MIC: Escherichia coli, IF4, read-out: MIC against E. coli IF4
# Description: as §2, §1
# E. coli W13 = test: microbe, parasite or virus in culture; details: for MIC: Escherichia coli, W13, read-out: MIC against E. coli W13
# Description: as §2, §1
# S. aureus B54 = test: microbe, parasite or virus in culture; details: for MIC: Staphylococcus aureus, B54, read-out: MIC against S. aureus B54
# Description: as §2, §1
# S. aureus B5 = test: microbe, parasite or virus in culture; details: for MIC: Staphylococcus aureus, B5, read-out: MIC against S. aureus B5
# Description: as §2, §1
# S. aureus B63 = test: microbe, parasite or virus in culture; details: for MIC: Staphylococcus aureus, B63, read-out: MIC against S. aureus B63
# Description: as §2, §1
# S. aureus B9 = test: microbe, parasite or virus in culture; details: for MIC: Staphylococcus aureus, B9, read-out: MIC against S. aureus B9
# Description: as §2, §1
# [1] = two-fold broth microdilution, CLSI, three independent occasions
# [2] = two-fold broth microdilution, CLSI, three independent occasions, isolate from diseased chicken liver
# [3] = two-fold broth microdilution, CLSI, three independent occasions, isolate from milk of cows with mastitis
SMILES,MIC (E. coli ATCC 25922),MIC (S. aureus ATCC 25923),MIC against E. coli ATCC 25922 ΔsbmA (E. coli ATCC 25922 ΔsbmA),MIC (E. coli 17),MIC (E. coli 2),MIC (E. coli IF4),MIC (E. coli W13),MIC (S. aureus B54),MIC (S. aureus B5),MIC (S. aureus B63),MIC (S. aureus B9),further results
"CC1(C)S[C@@H]2[C@H](NC(=O)[C@H](N)c3ccc(O)cc3)C(=O)N2[C@H]1C(=O)O [AMO, amoxicillin]",8 µg/mL,0.67 µg/mL,8 µg/mL,> 640 µg/mL,> 640 µg/mL,> 640 µg/mL,> 640 µg/mL,3.33 µg/mL,427 µg/mL,2.08 µg/mL,3.33 µg/mL,
"CS(=O)(=O)c1ccc([C@@H](O)[C@@H](CF)NC(=O)C(Cl)Cl)cc1 [FLO, florfenicol]",4 µg/mL,16 µg/mL,5.3 µg/mL,80 µg/mL,267 µg/mL,80 µg/mL,320 µg/mL,2.5 µg/mL,4.17 µg/mL,1.04 µg/mL,1.67 µg/mL,
"NC[C@H]1O[C@H](O[C@H]2[C@H](O)[C@@H](O[C@H]3O[C@H](CO)[C@@H](O)[C@H](N)[C@H]3O)[C@H](N)C[C@@H]2N)[C@H](O)[C@@H](O)[C@@H]1O [KAN, kanamycin]",,,,,,,,,,,,MIC against E. coli ATCC 25922 (E. coli ATCC 25922; [1]): 4 µg/mL; MIC against S. aureus ATCC 25923 (S. aureus ATCC 25923; [1]): 4 µg/mL; MIC against E. coli 17 (E. coli 17; [2]): 320 µg/mL; MIC against E. coli 2 (E. coli 2; [2]): >640 µg/mL; MIC against E. coli IF4 (E. coli IF4; [2]): >640 µg/mL; MIC against E. coli W13 (E. coli W13; [2]): 320 µg/mL; MIC against S. aureus B54 (S. aureus B54; [3]): 5.83 µg/mL; MIC against S. aureus B5 (S. aureus B5; [3]): 40 µg/mL; MIC against S. aureus B63 (S. aureus B63; [3]): 1.25 µg/mL; MIC against S. aureus B9 (S. aureus B9; [3]): 186.67 µg/mL
"CN(C)[C@@H]1C(O)=C(C(N)=O)C(=O)[C@@]2(O)C(O)=C3C(=O)c4c(O)cccc4[C@@](C)(O)[C@H]3C[C@@H]12 [TET, tetracycline]",2 µg/mL,1 µg/mL,1.67 µg/mL,160 µg/mL,1 µg/mL,133 µg/mL,160 µg/mL,66.7 µg/mL,0.08 µg/mL,0.42 µg/mL,80 µg/mL,
